In this assay the test system is L1210 leukemia ip in BDF1 mice, survival T/C. Nature of the assay: NCI In Vivo Anticancer Drug Screen. Data for tumor model L1210 Leukemia (intraperitoneal) in B6D2F1 (BDF1) mice. The settings on record: endpoint: mean survival time, higher = longer survival. The gist of the method:
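Transplantable tumor model; survival measured in treated vs vehicle control mice. Value = treated/control.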

The mark [1] stands for this setting: dose: 100.0 mg/kg/injection, schedule: Q04DX002 (ip), vehicle: Klucel (hydroxypropylcellulose) (HPC).
[2] abbreviates: dose: 200.0 mg/kg/injection, schedule: Q04DX002 (ip), vehicle: Klucel (hydroxypropylcellulose) (HPC).
Where [3] appears, read: dose: 400.0 mg/kg/injection, schedule: Q04DX002 (ip), vehicle: Klucel (hydroxypropylcellulose) (HPC).
[4] abbreviates: dose: 100.0 mg/kg/injection, schedule: Q04DX003 (ip), vehicle: Klucel (hydroxypropylcellulose) (HPC).
Where [5] appears, read: dose: 200.0 mg/kg/injection, schedule: Q04DX003 (ip), vehicle: Klucel (hydroxypropylcellulose) (HPC).
The mark [6] stands for this setting: dose: 400.0 mg/kg/injection, schedule: Q04DX003 (ip), vehicle: Klucel (hydroxypropylcellulose) (HPC).
[7] abbreviates: dose: 100.0 mg/kg/injection, schedule: Q04DX002 (ip), vehicle: saline.

Experimental findings from PubChem BioAssay AID248 (DTP/NCI, 2004) are described below.

Several values for one entry are separate records, joined by “and”; a condition that tells them apart may be missing. Equal values may be shown once. Toxic doses and inconclusive results are not listed.

Consider `CCCCCCCCCCCCCCCCCC(=O)OCCOC(=O)CCCCCCCCCCCCCCCCC`, for which the T/C is, setting by setting: (dose: 75.0 mg/kg/injection, schedule: Q01DX009 (ip), vehicle: other) 103 % of control; (dose: 100.0 mg/kg/injection, schedule: Q04DX002 (ip), vehicle: other) 88 % of control; (dose: 150.0 mg/kg/injection, schedule: Q01DX009 (ip), vehicle: other) 96 % of control; (dose: 200.0 mg/kg/injection, schedule: Q04DX002 (ip), vehicle: other) 98 % of control; (dose: 300.0 mg/kg/injection, schedule: Q01DX009 (ip), vehicle: other) 111 % of control.
As to `CCN(CC)C(=S)SC(C)C(=O)OC` (configuration not stated), the T/C is 96 % of control under setting [1], 107 % of control under setting [2] and 103 % of control under setting [3].
As for `O=[N+]([O-])c1cc([N+](=O)[O-])c2nn(-c3ccccc3)[n+]([O-])c2c1`, the T/C is 101 % of control under setting [4], 97 % of control under setting [5] and 98 % of control under setting [6].
Turning to `NC(CCl)=NCc1ccccn1`, under setting [7], the T/C was 96 % of control.
In the case of `OCC1OC(c2[nH]nc3c([Se])ncnc23)C(O)C1O` (configuration not stated), the T/C (dose: 1.56 mg/kg/injection, schedule: Q01DX005 (ip), vehicle: saline) was 95 % of control; the T/C (dose: 1.56 mg/kg/injection, schedule: Q01DX009 (ip), vehicle: saline) was 95 % of control; the T/C (dose: 3.12 mg/kg/injection, schedule: Q01DX005 (ip), vehicle: saline) is 97 % of control; the T/C (dose: 3.12 mg/kg/injection, schedule: Q01DX009 (ip), vehicle: saline) is 100 % of control; the T/C (dose: 6.25 mg/kg/injection, schedule: Q01DX005 (ip), vehicle: saline) is 99 % of control; the T/C (dose: 6.25 mg/kg/injection, schedule: Q01DX009 (ip), vehicle: saline) is 97 % of control. The T/C (dose: 12.5 mg/kg/injection, schedule: Q01DX009 (ip), vehicle: saline) was 90 % of control.
As to `c1ccc(N2CCN(c3ccccc3)C2C2CO2)cc1` (configuration not stated), the T/C runs as follows: (dose: 100.0 mg/kg/injection, schedule: Q04DX003 (ip), vehicle: saline) 95 % of control; (dose: 200.0 mg/kg/injection, schedule: Q04DX003 (ip), vehicle: saline) 97 % of control; (dose: 400.0 mg/kg/injection, schedule: Q04DX003 (ip), vehicle: saline) 98 % of control.
With `Cc1nonc1C(=O)NN`, the T/C reads like this: (dose: 25.0 mg/kg/injection, schedule: Q04DX002 (ip), vehicle: Klucel (hydroxypropylcellulose) (HPC)) 93 % of control; (dose: 50.0 mg/kg/injection, schedule: Q04DX002 (ip), vehicle: Klucel (hydroxypropylcellulose) (HPC)) 110 % of control; under setting [1], 93 % of control and 101 % of control.
For `O=S(c1ccccc1)c1ccccc1`, the T/C is 98 % of control (dose: 75.0 mg/kg/injection, schedule: Q01DX009 (ip), vehicle: Klucel (hydroxypropylcellulose) (HPC)); 102 % of control under setting [1]; 102 % of control (dose: 150.0 mg/kg/injection, schedule: Q01DX009 (ip), vehicle: Klucel (hydroxypropylcellulose) (HPC)); 98 % of control under setting [2]; 95 % of control (dose: 300.0 mg/kg/injection, schedule: Q01DX009 (ip), vehicle: Klucel (hydroxypropylcellulose) (HPC)); 112 % of control under setting [3].
Regarding `N=C(N)N=Nc1c(O)[nH]c2ccccc12`, the T/C by setting is: (dose: 15.0 mg/kg/injection, schedule: Q01DX Z (ip), vehicle: saline) 103 % of control; (dose: 30.0 mg/kg/injection, schedule: Q01DX Z (ip), vehicle: saline) 100 % of control; (dose: 37.5 mg/kg/injection, schedule: Q01DX Z (oral), vehicle: carboxymethylcellulose (CMC)) 102 % of control; (dose: 60.0 mg/kg/injection, schedule: Q01DX Z (ip), vehicle: saline) 94 % of control; (dose: 75.0 mg/kg/injection, schedule: Q01DX Z (oral), vehicle: carboxymethylcellulose (CMC)) 98 % of control; (dose: 120.0 mg/kg/injection, schedule: Q01DX Z (ip), vehicle: saline) 90 % of control. The T/C (dose: 120.0 mg/kg/injection, schedule: Q01DX Z (oral), vehicle: other) is 95 % of control; the T/C (dose: 150.0 mg/kg/injection, schedule: Q01DX Z (oral), vehicle: carboxymethylcellulose (CMC)) is 105 % of control; the T/C (dose: 240.0 mg/kg/injection, schedule: Q01DX Z (oral), vehicle: other) was 98 % of control.
As for `C=CCNC(=S)NCC=C`, the T/C reads like this: (dose: 100.0 mg/kg/injection, schedule: Q01DX009 (ip), vehicle: Klucel (hydroxypropylcellulose) (HPC)) 102 % of control; under setting [4], 102 % of control; (dose: 200.0 mg/kg/injection, schedule: Q01DX009 (ip), vehicle: Klucel (hydroxypropylcellulose) (HPC)) 100 % of control; under setting [5], 104 % of control; (dose: 400.0 mg/kg/injection, schedule: Q01DX009 (ip), vehicle: Klucel (hydroxypropylcellulose) (HPC)) 100 % of control; under setting [6], 102 % of control.
For `Nc1nc(SN=Nc2ccc([As](=O)(O)O)cc2)c2[nH]cnc2n1`, the T/C (dose: 0.5 mg/kg/injection, schedule: Q01DX Z (ip), vehicle: other) was 110 % of control; the T/C (dose: 0.7 mg/kg/injection, schedule: Q01DX Z (ip), vehicle: other) was 114 % of control; the T/C (dose: 1.25 mg/kg/injection, schedule: Q01DX015 (ip), vehicle: carboxymethylcellulose (CMC)) was 106 % of control; the T/C (dose: 1.3 mg/kg/injection, schedule: Q01DX Z (ip), vehicle: other) was 107 % of control; the T/C (dose: 2.5 mg/kg/injection, schedule: Q01DX015 (ip), vehicle: carboxymethylcellulose (CMC)) was 115 % of control; the T/C (dose: 10.0 mg/kg/injection, schedule: Q01DX015 (ip), vehicle: carboxymethylcellulose (CMC)) was 159 % of control. In addition, the T/C was 151 % of control and 154 % of control (dose: 11.0 mg/kg/injection, schedule: Q01DX Z (ip), vehicle: other); 113 % of control (dose: 25.0 mg/kg/injection, schedule: Q## X001 (ip), vehicle: carboxymethylcellulose (CMC)); 123 % of control (dose: 50.0 mg/kg/injection, schedule: Q## X001 (ip), vehicle: carboxymethylcellulose (CMC)); 106 % of control (dose: 56.0 mg/kg/injection, schedule: Q01DX Z (ip), vehicle: other).
For the compound `CCn1c(N)cc(=O)[nH]c1=S`, the T/C (dose: 50.0 mg/kg/injection, schedule: Q01DX001 (ip), vehicle: saline) is 96 % of control; the T/C (dose: 100.0 mg/kg/injection, schedule: Q01DX001 (ip), vehicle: saline) is 108 % of control; the T/C (dose: 200.0 mg/kg/injection, schedule: Q01DX001 (ip), vehicle: saline) is 102 % of control; the T/C (dose: 400.0 mg/kg/injection, schedule: Q01DX001 (ip), vehicle: saline) is 106 % of control.
With `O=C(O)c1cc(Br)c2ccccc2c1O`, the T/C runs as follows: (dose: 25.0 mg/kg/injection, schedule: Q01DX009 (ip), vehicle: saline sonified) 103 % of control; (dose: 50.0 mg/kg/injection, schedule: Q01DX009 (ip), vehicle: saline sonified) 108 % of control; (dose: 100.0 mg/kg/injection, schedule: Q01DX009 (ip), vehicle: saline sonified) 100 % of control; under setting [4], 104 % of control.
As for `CCC(/C=C\C(C)C1CCC2C3C=CC45CC4CCC5(C)C3CCC12C)C(C)C` (configuration not stated), the T/C is, setting by setting: (dose: 100.0 mg/kg/injection, schedule: Q01DX001 (ip), vehicle: saline with Tween-80) 96 % of control; (dose: 200.0 mg/kg/injection, schedule: Q01DX001 (ip), vehicle: saline with Tween-80) 89 % of control; (dose: 400.0 mg/kg/injection, schedule: Q01DX001 (ip), vehicle: saline with Tween-80) 86 % of control.
With `CCOC(=O)C1C(=O)CC(=O)C(C(=O)OCC)C1c1cc(OC)c(OC)c(OC)c1` (configuration not stated), the T/C runs as follows: under setting [1], 91 % of control; under setting [2], 91 % of control; under setting [3], 94 % of control.
For the compound `Cc1ccc(C(=O)C=Nc2ccc(C(=O)O)cc2)cc1`, the T/C was 97 % of control under setting [4] and 97 % of control under setting [5].
In the case of `CC(=O)NC1CCC(/C=C(\C#N)C2CCC(C)CC2)CC1` (configuration not stated), the T/C reads like this: (dose: 100.0 mg/kg/injection, schedule: Q04DX002 (ip), vehicle: saline with Tween-80) 87 % of control; (dose: 200.0 mg/kg/injection, schedule: Q04DX002 (ip), vehicle: saline with Tween-80) 93 % of control.
As for `NC(CSS(=O)(=O)O)=NCc1ccncc1`, the T/C reads like this: (dose: 25.0 mg/kg/injection, schedule: Q04DX002 (ip), vehicle: saline) 95 % of control; (dose: 50.0 mg/kg/injection, schedule: Q04DX002 (ip), vehicle: saline) 103 % of control; under setting [7], 123 % of control.
